In this assay the test system is Cell line. Nature of the assay: Radical-scavenging potency with metal-protein-attenuating ability in human was determined. It counts as functional, cell-based.

As a reminder, the EC50 is the concentration giving half of the maximal effect. Low readings indicate an effect from little substance, high ones a need for much substance. The compound `c1ccc2[nH]c(CN3CCNCCNCC3)nc2c1` displayed an EC50 (Homo sapiens, Cell line) of 0.9 µM.
Same read-out and setting: the result for `c1ccc2[nH]c(CN3CCNCCN(Cc4nc5ccccc5[nH]4)CC3)nc2c1` reads 0.76 µM.
Take “N,N0-butylene bis-(2-acetylpyridine iminato) copper(II)”: the EC50 (cell line) amounted to 0.56 µM.
For the setting “cell line”, “N,N0-ethylene bis-(2-acetylpyridine iminato) copper(II)” had an EC50 of 11 µM.
Under “cell line”, “N,N0-propylene bis-(2-acetylpyridine iminato) copper(II)” yielded an EC50 of 2.33 µM.
